From patent publication US12133900B2, “Synthesis and composition of amino acid linking groups conjugated to compounds used for the targeted imaging of tumors” (Purdue Research Foundation, priority 2013, dated 2024)
Entries after “also recorded” stand apart in the source; their conditions may differ.

Experiments:
[1] = system: FR-positive MDA-MB 231 tumor xenografts; assay: Imaging and biodistribution, MDA-MB 231 breast xenograft; assay type: in vivo, mice
Method: (§1) Seven-week-old female nu/nu mice were inoculated subcutaneously with KB (1.0×10^6/mouse in RPM11640 medium), IGROV (5.0×10^6/mouse in 50% high concentrated matrigel+RPM11640 medium), SKOV3 (5.0×10^6/mouse in RPM11640 medium), OVCAR3 (5.0×10^6/mouse in RPM11640 medium), MDA-MB231 (1.0×10^6/mouse in RPM11640 medium), M109 (1.0×10^6/mouse in RPM11640 medium) or A549 cells (2.0×10^6/mouse in RPM11640 medium) on the shoulder. Growth of the tumors was measured in perpendicular directions every 2 days using a caliper (body weights were monitored on the same schedule), and the volumes of the tumors were calculated as 0.5×L×W^2 (L=longest axis and W=axis perpendicular to L in millimeters). Once tumors reached approximately 300-400 mm3 in volume, animals (3-5 mice/group) were intravenously injected with the compound of interest in PBS (for dose escalation in KB tumor model: 0.3-90 nmol, for time dependent in KB tumor model: 2 or 10 nmol, and for general whole body imaging and biodistribution for all tumor models: 2 nmol, in 100 μL in PBS per mouse). For whole body imaging and biodistribution studies, animals were euthanized 2 hours after administration of the compound of interest by CO2 asphyxiation. For time dependent studies, animals were imaged under anesthesia using isoflurane. Whole body imaging (intact tumor) experiments was then performed using a Caliper IVIS Lumina II Imaging Station with Living Image 4.0 software (PerkinElmer Inc, MA).
(§2) Following whole body imaging, animals were dissected and selected tissues (heart, lung, liver, spleen, kidneys, stomach, small intestine, large intestine, muscle, skin, and tumor) were analyzed for fluorescence activity using IVIS imager using same settings as in whole body imaging.

[2] = system: FR-positive IGROV orthotopic ovary tumor; assay: Imaging and biodistribution, IGROV ovarian orthotopic model; assay type: in vivo, mice; details: 2 nmol, 2 h
Method: Ovarian cancer was developed through surgical implantation of ovarian cancer cell lines near the ovarian bursa of the mouse. Seven-week-old female athymic nude mice were given 1-5% isoflurane for anesthesia and subcutaneous injection of 5 mg/kg meloxicam preoperatively for analgesia. The mice were placed dorsal side up and washed above the right ovary (just lateral to the epaxial muscles and ˜1.15 cm caudal to the rib cage) with a chlorhexidine scrub to ensure a sterile area for incision. After an insertion was made using scalpel through the skin, the peritoneal lining was lifted to make a small incision using a scissor and widened using a forceps. The ovarian fat pad was carefully lifted out and placed on a wetted gauze pad adjacent to the incision. Ovarian cancer cells (50,000 cells in 5 μL) were injected between the bursa and the ovary using a 30 gage needle. After placing the ovarian fat pad back into the body cavity, the body wall was closed using 3-0 or 4-0 vicryl and the skin was closed using staples.
as §2

[3] = biological target: T1, folate receptor (FR-α) on KB cells (Homo sapiens, UniProt P15328); assay: Competition binding with [3H]-folic acid on KB cells
T1 construct: KB cells that overexpress FR-α were seeded in 24-well (100,000 cells/well) Falcon plates; host or cells: KB cells (human; described as a HeLa derivative)
Method: KB cells that overexpress FR-α were seeded in 24-well (100,000 cells/well) Falcon plates and allowed to form monolayers over a period of 24 h. […] After incubating for 1 hour at 37° C., cells were rinsed with PBS (2×0.5 mL) and 1M trichloroacetic acid (1×0.5 mL) to remove any unbound radioactive materials. After adding 1% sodium dodecylsulfate in PBS (0.5 mL), cells were transferred into individual scintillation vials containing Ecolume scintillation cocktail (3.0 mL) and counted in a liquid scintillation analyzer. The relative binding affinities were calculated using a plot of cell bound radioactivity versus the concentration of the test article using Graph Pad Prism 4.
(§3) KB cells that overexpress FR-α were seeded in 24-well (100,000 cells/well) Falcon plates (BD Biosciences, CA) and allowed to form monolayers over a period of 12 h. […] After incubating for 1 h at 37° C., cells were rinsed with PBS (3×0.5 mL, Gibco, NY) to remove any unbound radioactive materials. After adding 0.25 M sodium hydroxide (0.5 mL) and incubating for 12 h at 4° C., cells were transferred into individual scintillation vials containing Ecolite scintillation cocktail (3.0 mL, MP Biomedicals, OH) and counted in a liquid scintillation analyzer (Packard). The relative binding affinities were calculated using a plot of % cell bound radioactivity versus the log concentration of the test article using GraphPad Prism 4.
as §3, with “12 hours.” for “12 h.”, “1 hour” for “1 h”, “12 hours” for “12 h”

[4] = system: breast cancer cells metastasized to lung; assay: Imaging, MDA-MB 231 metastatic model; assay type: in vivo, mice; details: 2 nmol, 2 h
Method: One million (1×106) of either L1210A or MDA-MB231 cancer cells per mouse (cancer cells/mouse) were administered via tail vein injection into the mice. Tumor growth was monitored every other day using a Caliper IVIS Lumina II Imaging Station with Living Image 4.0 software (PerkinElmer Inc.).

[5] = system: FR-positive SKOV3 tumor xenografts; assay: Imaging and biodistribution, SKOV3 ovarian xenograft; assay type: in vivo, mice; details: 2 nmol, 2 h
Method: as §1, §2

FR-positive M109 tumors = assay: Imaging and biodistribution, M109 metastatic model; assay type: in vivo, mice; details: 2 nmol, 2 h
Method: as §1, with “For whole body imaging and biodistribution studies, animals were euthanized 2 hours after administration of the compound of interest by CO2 asphyxiation. For time dependent studies, animals were imaged under anesthesia using isoflurane. Whole body imaging (intact tumor) experiments was then performed using a Caliper IVIS Lumina II Imaging Station with Living Image 4.0 software (PerkinElmer Inc, MA).” left out
as §2

T1 sequence (P15328 25-234): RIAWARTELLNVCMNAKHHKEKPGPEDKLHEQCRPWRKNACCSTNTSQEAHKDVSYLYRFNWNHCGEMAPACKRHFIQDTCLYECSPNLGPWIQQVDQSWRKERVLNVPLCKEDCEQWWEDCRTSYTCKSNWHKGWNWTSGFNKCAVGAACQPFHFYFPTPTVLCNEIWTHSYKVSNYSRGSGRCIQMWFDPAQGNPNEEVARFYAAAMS

## CC1(C)C(/C=C/C2=C(Oc3ccc(C[C@H](NC(=O)c4ccc(NCc5cnc6nc(N)[nH]c(=O)c6n5)cc4)C(=O)[O-])cc3)C(=C/C=C3\N(CCCCS(=O)(=O)[O-])c4ccc(S(=O)(=O)[O-])cc4C3(C)C)/CCC2)=[N+](CCCCS(=O)(=O)[O-])c2ccc(S(=O)(=O)[O-])cc21.[H+].[H+].[H+].[H+] [OTL-0038, Pte-Tyr-S0456]
[1]; 2 nmol, 2 h
  ex-vivo tissue biodistribution: highest fluorescence intensities were observed in FR-positive tumors and kidneys
  tumor-to-normal tissue ratios: excellent tumor-to-normal tissue ratios
[1]; 2 nmol, 2 h, listed as OTL38
  whole body imaging: accumulation: accumulated mainly in the FR-positive MDA-MB 231 tumor xenografts; also recorded: mainly accumulated in FR-positive MDA-MB 231 tumor xenografts and kidneys
[1]; 100 fold excess of folic acid prior to 2 nmol, 2 h
  accumulation in tumor and kidneys after blocking the FR: inhibited by the administration of 100 fold excess of folic acid
[1]; blocking with excess folic acid
  specificity for FR (conclusion): highly specific for FR
[2]
  accumulation (tissue biodistribution): accumulated mainly in the FR-positive IGROV orthotopic ovary tumor
  tumor-to-normal tissue ratios: excellent tumor-to-normal tissue ratios
[3]; KB cells
  affinity and specificity for folate receptor (words): compares well with the binding affinity of folic acid
  competition with [3H]-folic acid: competed well with [3H]-folic acid
[3]; KB cells, listed as OTL38
  affinity and specificity for folate receptor (words): binds to FR with high affinity and specificity
[3]; KB cells, listed as Pte-Tyr-S0456
  affinity and specificity for folate receptor (words): binds folate receptor with high affinity and specificity
[3]; relative affinity of folic acid=1, <1 weaker
  Relative binding affinities: 0.71
[4]
  accumulation: mainly accumulated in the breast cancer cells metastasized to lung
[5]
  ex-vivo tissue biodistribution: highest fluorescence intensities were observed in FR-positive tumors and kidneys
  tumor-to-normal tissue ratios: excellent tumor-to-normal tissue ratios
  whole body imaging: accumulation: accumulated mainly in the FR-positive SKOV3 tumor xenografts
FR-positive M109 tumors
  tumor-to-normal tissue ratios: excellent tumor-to-normal tissue ratios
  whole body imaging: accumulation: accumulated mainly in the FR-positive M109 tumors metastasize to the liver, lung and spleen
